Like-named read-outs stand apart in the source and are kept apart here. One block for each compound: values may come before it. Square brackets hold non-standard residues; d marks the D form. Peptide text beside a SMILES is read from it. * marks the point of attachment. AMC = Cc1cc(=O)oc2cc(N*)ccc12; pGlu = O=C1CC[C@@H](C(=O)O)N1
Legend:
[1] = biological target: native rat cortical TRH receptors; assay: TRH receptor binding: displacement of [3H][3-Me-His2]TRH from rat cortical membranes; conditions: for Affinity for [3H]-3MeHis-TRH-labelled receptors in rat brain cortex: result in words; for Affinity for [3H]-3MeHis-TRH-labelled receptors compared with 3MeHis-TRH: rat brain cortex
Experimental: It cannot be ruled out, however, that [^3H][3-Me-His^2]TRH is binding to a TRH receptor subtype in rat brain cortex that has yet to be identified.
Radioligand binding assays were carried out to examine the ability of these TRH-DE inhibitors to bind to TRH receptors. This was achieved by measuring the ability of the inhibitors to displace [^3H][3-Me-His^2]TRH binding to rat cortical membranes. Membranes were prepared from the cortex of male Wistar rats. The binding of [^3H]-3MeHis-TRH to TRH receptors in cortical membranes was measured as described previously (Kelly et al., 2002) using 10 mM TRH to define non-specific binding. The affinity of TRH-DE inhibitors for TRH receptors was determined in competition experiments and data were analyzed using GraphPad Prism. […] The rank order of potency of D isomer inhibitors was JAK4-D>JAK2-D>JAK1-D.

[2] = biological target: T1, TRH-DE purified from porcine brain (Sus scrofa, UniProt A0A287AP33); assay: Inhibition of purified TRH-DE (kinetic/fluorometric assays); format: biochemical; conditions: read-out: Ki values for TRH-DE inhibitors
T1 construct: TRH-DE purified from porcine brain; from tissue; host or cells: porcine brain
T1 sequence (A0A287AP33 1-1066): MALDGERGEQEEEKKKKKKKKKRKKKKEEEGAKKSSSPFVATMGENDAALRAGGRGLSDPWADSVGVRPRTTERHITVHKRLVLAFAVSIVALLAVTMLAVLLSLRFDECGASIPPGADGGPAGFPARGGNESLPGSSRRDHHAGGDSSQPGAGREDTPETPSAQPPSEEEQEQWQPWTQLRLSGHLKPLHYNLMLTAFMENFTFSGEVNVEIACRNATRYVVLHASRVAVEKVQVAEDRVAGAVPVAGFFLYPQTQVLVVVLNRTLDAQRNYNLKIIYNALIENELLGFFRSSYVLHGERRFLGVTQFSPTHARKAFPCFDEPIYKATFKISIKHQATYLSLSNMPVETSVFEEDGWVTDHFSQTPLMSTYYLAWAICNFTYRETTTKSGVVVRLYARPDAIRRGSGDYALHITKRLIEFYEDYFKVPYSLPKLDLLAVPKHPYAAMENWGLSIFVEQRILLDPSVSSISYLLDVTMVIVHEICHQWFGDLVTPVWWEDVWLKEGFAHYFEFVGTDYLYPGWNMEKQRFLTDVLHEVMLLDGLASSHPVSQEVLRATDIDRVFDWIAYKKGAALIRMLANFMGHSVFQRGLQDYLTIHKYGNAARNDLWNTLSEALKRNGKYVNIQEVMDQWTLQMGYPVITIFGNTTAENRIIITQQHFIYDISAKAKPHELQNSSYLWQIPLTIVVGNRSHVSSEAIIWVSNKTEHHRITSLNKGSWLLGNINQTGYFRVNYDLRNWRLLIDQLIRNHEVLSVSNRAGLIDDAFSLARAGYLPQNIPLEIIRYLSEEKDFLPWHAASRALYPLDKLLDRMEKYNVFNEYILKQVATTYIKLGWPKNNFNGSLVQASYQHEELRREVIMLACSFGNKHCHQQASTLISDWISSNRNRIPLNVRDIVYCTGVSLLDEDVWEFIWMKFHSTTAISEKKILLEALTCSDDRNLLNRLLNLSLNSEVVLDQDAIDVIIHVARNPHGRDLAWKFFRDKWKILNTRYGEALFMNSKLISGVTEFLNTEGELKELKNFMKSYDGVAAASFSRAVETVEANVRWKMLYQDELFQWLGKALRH
Description: The binding capacity offered by in the vicinity of the S2′ binding site of TRH-DE was studied. […] The L-amino acids in these peptides were replaced with D-amino acids. The vast majority of naturally occurring polypeptides are composed of L-amino acids and mammalian proteolytic enzymes are designed to work with this stereochemistry. Thus, replacement of L-amino acids by D-amino acids is used in the art in an endeavor to confer stability to proteolytic degradation as described in U.S. Pat. No. 6,703,366. It is recognized by the art that this type of replacement, however, may lead to loss of peptide specificity and or activity as noted by U.S. Pat. No. 4,587,233, Sato et al. 1987 and Fischer 2003, and thus the effect of the replacement is unpredictable. […] Replacement of L-amino acids by D-amino acids may also be used to scan the relative importance of the stereochemistry of particular functional groups in a peptide structure and also that of local structures within the peptide (Hruby, 2002).
The ability of compounds to be hydrolysed by and to inhibit TRH-DE purified from porcine brain was determined using kinetic assays as previously described (Kelly et al. 1999, 2000a, 2000b, U.S. Pat. application 20030166944). […] [JAK 1, JAK 2, JAK 3, JAK 4 and JAK 5 are described in U.S. Pat. App. No. 20030166944.]
HPLC analysis was used, as previously described (Kelly et al. 2000a, U.S. Pat. App. 20030166944), to assess the ability of each compound listed above to act as a TRH-DE substrate. […] Compounds were then screened for their ability to inhibit TRH-DE purified from porcine brain using fluorometric assays, as previously described (Kelly et al. 2000a, U.S. Pat. App. 20030166944).

Male Wistar rats [3] = assay: Antagonism of barbiturate-induced sleep time (analeptic effect); format: in vivo, rat; conditions: 1 mg/kg i.v.; for Sleep time: 10 min after sodium pentobarbitone 30 mg/kg i.p., mean ± SEM; for Effect on barbiturate-induced sleep time: result in words
Experimental: The antagonism of barbiturate-induced anesthesia is a well-recognized pharmacological effect of TRH and is used in the art to indicate successful central delivery and activity of TRH analogues. […] Male Wistar rats (150-250 g) were anaesthetized with sodium pentobarbitone (30 mg/kg i.p.). […] Animals were placed on their backs and sleep times recorded. From Table III it can be seen that both […] [table]

Male Wistar rats [4] = assay: Rat behaviour total activity score; format: in vivo
Experimental: These include, increased locomotor activity (21-22), induction of blinking and forepaw licking and body shaking behavior, often referred to as 'wet dog shakes' (WDS) Kelly et al., 2000b). […] Male Wistar rats (150-250 g) were placed in individual perspex boxes and allowed to acclimatize for 20 min. […] Individual behaviors were recorded for 30 sec at 5 min intervals by an observer who was blind to treatment. Behaviors during each observation period were summed to yield a total activity score.

Male Wistar rats [5] = assay: Wet dog shaking (WDS) behavior; format: in vivo, rat
[6] = system: native rat cortical TRH receptors; conditions: cited from earlier work; for Affinity compared to TRH for [3H]-3MeHis-TRH-labelled receptors in rat cortical membranes: previous studies (Kelly et al., 2002)
Male Wistar rats [7] = conditions: Kelly et al., 2000b; cited from earlier work
[8] = L isomer, JAK compounds dissolved in DMSO, read-out: Ki, inhibition of [3H]-3MeHis-TRH binding, X is L isomer aa
[9] = D isomer, JAK compounds dissolved in DMSO, read-out: Ki, inhibition of [3H]-3MeHis-TRH binding, X is D isomer aa

Ki ([1]; in DMSO, read-out: Ki, inhibition of [3H]-3MeHis-TRH binding): 74 nM
Ki ([1]; in saline, read-out: Ki, inhibition of [3H]-3MeHis-TRH binding): 1.9 nM
Compound: Cn1cncc1C[C@H](NC(=O)[C@@H]1CCC(=O)N1)C(=O)N1CCC[C@H]1C(N)=O [3-MeHis-TRH, reference compound]

Ki [2]: 1 nM
Ki [1, 8]: > 100000 nM
Affinity for [3H]-3MeHis-TRH-labelled receptors in rat brain cortex [1]: low affinity
Compound: Cc1cc(=O)oc2cc(NC(=O)[C@H](Cc3c[nH]c4ccccc34)NC(=O)[C@H](Cc3c[nH]c4ccccc34)NC(=O)[C@H](Cc3ccc(O)cc3)NC(=O)[C@@H]3CCCN3C(=O)[C@H](CC(N)=O)NC(=O)[C@@H]3CCC(=O)N3)ccc12 [JAK 1, Glp-Asn-Pro-LTyr-LTrp-LTrp-AMC] ([pGlu]NPYWW-{AMC})

Ki [2]: 30 nM
Ki [1, 9]: 60 nM
Compound: Cc1cc(=O)oc2cc(NC(=O)[C@@H](Cc3c[nH]c4ccccc34)NC(=O)[C@@H](Cc3c[nH]c4ccccc34)NC(=O)[C@@H](Cc3ccc(O)cc3)NC(=O)[C@@H]3CCCN3C(=O)[C@H](CC(N)=O)NC(=O)[C@@H]3CCC(=O)N3)ccc12 [JAK 1D, Glp-Asn-Pro-DTyr-DTrp-DTrpAMC] ([pGlu]NP[dY][dW][dW]-{AMC})

Ki [1, 8]: ~40000 nM
Affinity for [3H]-3MeHis-TRH-labelled receptors in rat brain cortex [1]: low affinity
Compound: Cc1cc(=O)oc2cc(NC(=O)[C@H](Cc3c[nH]c4ccccc34)NC(=O)[C@H](Cc3ccc(O)cc3)NC(=O)[C@@H]3CCCN3C(=O)[C@H](CC(N)=O)NC(=O)[C@@H]3CCC(=O)N3)ccc12 [JAK 2, Glp-Asn-Pro-LTyr-LTrp-AMC] ([pGlu]NPYW-{AMC})

Ki [2]: 100 nM
Ki [1, 9]: 3.7 nM
Affinity for [3H]-3MeHis-TRH-labelled receptors compared with 3MeHis-TRH [1]: greater affinity
Compound: Cc1cc(=O)oc2cc(NC(=O)[C@@H](Cc3c[nH]c4ccccc34)NC(=O)[C@@H](Cc3ccc(O)cc3)NC(=O)[C@@H]3CCCN3C(=O)[C@H](CC(N)=O)NC(=O)[C@@H]3CCC(=O)N3)ccc12 [JAK 2D, Glp-Asn-Pro-DTyr-DTrpAMC] ([pGlu]NP[dY][dW]-{AMC})

Ki [2]: 730 nM
Compound: NC(=O)C[C@H](NC(=O)[C@@H]1CCC(=O)N1)C(=O)N1CCC[C@H]1C(=O)N[C@@H](Cc1ccc(O)cc1)C(=O)N[C@@H](Cc1c[nH]c2ccccc12)C(=O)N[C@@H](Cc1c[nH]c2ccccc12)C(N)=O [JAK 3, Glp-Asn-Pro-LTyr-LTrp-LTrpNH2] ([pGlu]NPYWW-NH2)

Ki [1, 8]: 120 nM
Compound: NC(=O)C[C@H](NC(=O)[C@@H]1CCC(=O)N1)C(=O)N1CCC[C@H]1C(=O)N[C@@H](Cc1ccc(O)cc1)C(=O)N[C@@H](Cc1c[nH]c2ccccc12)C(N)=O [JAK 4, Glp-Asn-Pro-LTyr-LTrp-NH2] ([pGlu]NPYW-NH2)

Ki [2]: 110 nM
Ki [1, 9]: 5.5 nM
Affinity for [3H]-3MeHis-TRH-labelled receptors compared with 3MeHis-TRH [1]: greater affinity
Compound: NC(=O)C[C@H](NC(=O)[C@@H]1CCC(=O)N1)C(=O)N1CCC[C@H]1C(=O)N[C@H](Cc1ccc(O)cc1)C(=O)N[C@H](Cc1c[nH]c2ccccc12)C(N)=O [JAK 4D, Glp-Asn-Pro-D-Tyr-D-TrpNH2] ([pGlu]NP[dY][dW]-NH2)
Sleep time (Male Wistar rats [3]): 54.1 ± 2.4 min
Responses on co-administration with 10 mg/kg TRH (Male Wistar rats [4]; 0.1 mg/kg): equivalent to those achieved by 20 and 50 mg/kg TRH
Effect of pre-treatment on stimulatory effect of 10 mg/kg TRH (Male Wistar rats [4]; 0.1 mg/kg, 15-20 min after TRH): enhanced
Activity response compared with TRH (Male Wistar rats [4]; 1 mg/kg JAK4-D): comparable to that produced by TRH 5 mg/kg
Effect of pre-treatment on responses to 10 mg/kg TRH (Male Wistar rats [4]; 1 mg/kg, entire observation period): enhanced and prolonged
Effect on spontaneous rat activity scores vs vehicle (Male Wistar rats [4]; 0.1-5 mg/kg i.p.): transient increase
Effect of pre-treatment on peak WDS response to 10 mg/kg TRH (Male Wistar rats [5]; 1 mg/kg): enhanced
Occurrence of WDS (Male Wistar rats [5]; 1 mg/kg): comparable with the response produced by 5 mg/kg TRH

Ki [2]: 970 nM
Compound: Cc1cc(=O)oc2cc(NC(=O)[C@@H]3CCCN3C(=O)[C@H](CC(N)=O)NC(=O)[C@@H]3CCC(=O)N3)ccc12 [JAK 5, Glp-Asn-Pro-AMC] ([pGlu]-Asn-Pro-{AMC})
Affinity compared to TRH for [3H]-3MeHis-TRH-labelled receptors in rat cortical membranes [6]: relatively low affinity
Effect on central effects of TRH in vivo (Male Wistar rats [7]): amplify

Ki [2]: 16100 nM
Compound: NC(=O)C[C@H](NC(=O)[C@@H]1CCC(=O)N1)C(=O)N1CCC[C@H]1C(N)=O [JAK 6, Glp-Asn-ProNH2] ([pGlu]-Asn-Pro-NH2)
Affinity compared to TRH for [3H]-3MeHis-TRH-labelled receptors in rat cortical membranes [6]: relatively low affinity

Ki [2]: 19600 nM
Ki [1, 9]: 1000 nM
Compound: NC(=O)[C@@H](Cc1c[nH]c2ccccc12)NC(=O)[C@@H](Cc1ccc(O)cc1)NC(=O)[C@@H]1CCCN1C(=O)[C@H](Cc1c[nH]cn1)NC(=O)[C@@H]1CCC(=O)N1 [JAK 7D, Glp-His-Pro-D-Tyr-D-TrpNH2] ([pGlu]HP[dY][dW]-NH2)

Ki [1, 8]: 22 nM
Compound: NC(=O)[C@@H]1CCCN1C(=O)[C@H](Cc1c[nH]cn1)NC(=O)[C@@H]1CCC(=O)N1 [TRH, pyroglutamyl-histidyl-prolineamide, reference compound]
Sleep time (Male Wistar rats [3]): 54.5 ± 4.3 min
Effect on barbiturate-induced sleep time (Male Wistar rats [3]): significantly (p<0.05, Student's t-test) reduce
Effect on rat activity (Male Wistar rats [4]; TRH 5-50 mg/kg): dose-dependent increase
Effect on WDS (Male Wistar rats [5]; TRH i.p.): concentration-dependent increase
Persistence of effects on WDS (Male Wistar rats [5]; TRH i.p.): approximately 20 min
Time of maximum numbers of WDS post administration (Male Wistar rats [5]; TRH i.p.): 5 min

Compound: [^3H][3-Me-His^2]TRH [reference compound]
Kd ([6]; single population of high affinity sites (Sharif 1989, Kelly et al., 2002), read-out: Kd on rat brain cortical membranes): ~5 nM

Compound: [pGlu]NP[dY][dW]-NH2
Effect on barbiturate-induced sleep time (Male Wistar rats [3]): significantly (p<0.05, Student's t-test) reduce

Source: US7713935B2, “Compounds that modulate TRH actions” (The Provost, Fellows and Scholars of The College of The …, priority 2004, dated 2010)
